Earlier results as cited in US8709996B2, “Pharmaceutical treatment process using chitosan or derivative thereof” (Archimedes Development Limited, priority 2003, dated 2014).

Conditions: pig, in vivo

Substance | bioavailability of octreotide compared to a solution of octreotide alone
chitosan hydrochloride | substantial increases in bioavailability
trimethyl chitosan chloride | substantial increases in bioavailability
